Laboratory results published in patent publication US12187773B2, “Modified GIP peptide analogues” (Antag Therapeutics ApS, priority 2018, dated 2025).
Where a SMILES comes first, the peptide text is derived from it. The star is where a group is joined. C18 diacid = O=C(O)CCCCCCCCCCCCCCCCC(=O)*

Legend:
Type in all cases: cell-based
[1] = target: T1, secretin receptor (SCTR) (Homo sapiens, UniProt P47872); test: cAMP assay - selectivity, antagonism at secretin receptor; conditions: Table 3B; COS-7 cells; agonist secretin
T1 construct: expressed in transfected cells; host or cells: COS-7 (transient)
T1 sequence (P47872 23-440, species assumed): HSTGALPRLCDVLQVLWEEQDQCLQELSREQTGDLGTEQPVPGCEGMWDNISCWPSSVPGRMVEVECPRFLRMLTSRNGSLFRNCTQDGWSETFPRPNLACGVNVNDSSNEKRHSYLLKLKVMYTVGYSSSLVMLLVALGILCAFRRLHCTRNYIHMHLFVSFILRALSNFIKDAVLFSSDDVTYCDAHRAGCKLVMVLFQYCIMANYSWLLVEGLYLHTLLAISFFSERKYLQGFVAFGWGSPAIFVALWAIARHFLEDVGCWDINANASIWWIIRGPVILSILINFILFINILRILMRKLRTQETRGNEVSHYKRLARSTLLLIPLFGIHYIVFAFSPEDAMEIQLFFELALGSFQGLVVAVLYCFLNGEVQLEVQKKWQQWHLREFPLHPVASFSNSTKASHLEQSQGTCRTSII
Description: (§1) Transient transfected COS-7 cells expressing the either of the GLP1 receptor (GLP1R), GLP2 receptor (GLP2R), glucagon receptor (GcgR) or secretin receptor (SCTR) were seeded in white 96-well plates with a density of 3.5*10^4/well. The day after, the cells were washed twice with Hepes buffered saline (HBS) buffer and incubated with HBS and 1 mM 3-isobutyl-1-methylxanthine (IBMX) for 30 min at 37° C. To test for agonistic properties, ligands were added and incubated for 30 min at 37° C. In order to test for antagonistic properties, the cells were preincubated with the antagonists for 10 min prior to the addition the natural agonist for the expressed receptor (GLP1 for GLP1R expressing cells, GLP2 for GLP2R expressing cells, glucagon for the GcgR and secretin for the SCTR) and subsequent incubated for 20 additional min. […] The HitHunter™ cAMP XS assay (DiscoveRx) was carried out according to the manufacturer's instructions.

[2] = target: T2, human GIP receptor (Homo sapiens, UniProt P48546); test: cAMP agonism (CisBio cAMP Dynamic 2 HTRF assay); conditions: HEK293, read-out: cAMP agonism, % Efficacy, Table 1C, HEK-293 cells
T2 sequence (P48546 22-466): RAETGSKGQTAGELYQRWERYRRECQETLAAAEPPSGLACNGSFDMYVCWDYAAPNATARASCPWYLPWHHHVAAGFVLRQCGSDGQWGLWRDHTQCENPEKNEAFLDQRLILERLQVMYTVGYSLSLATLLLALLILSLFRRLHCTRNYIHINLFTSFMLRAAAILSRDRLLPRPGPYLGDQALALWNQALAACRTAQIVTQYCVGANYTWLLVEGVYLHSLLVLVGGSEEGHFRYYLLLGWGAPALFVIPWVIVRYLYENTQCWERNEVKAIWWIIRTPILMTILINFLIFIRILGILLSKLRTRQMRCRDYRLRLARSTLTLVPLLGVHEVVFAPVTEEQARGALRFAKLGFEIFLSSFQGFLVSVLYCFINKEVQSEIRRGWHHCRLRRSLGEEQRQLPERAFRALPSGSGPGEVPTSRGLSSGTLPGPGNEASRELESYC
Description: To test for agonistic properties at the GIP receptor, compounds were diluted and added to cells as described above and incubated for 30 min at 37° C. The resulting increase in intracellular cAMP was determined using the CisBio cAMP Dynamic 2 HTRF Assay Kit as described above.

[3] = target: T2, human GIP receptor; test: cAMP accumulation, agonism (DiscoveRx HitHunter cAMP XS assay); parameters: host or cells: COS-7 (transient, calcium phosphate; pCMV-Script vector); conditions: Table 1B; DiscoveRx; COS-7 cells
Method in brief: (§2)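 cAMP accumulation measured by HitHunter cAMP XS in COS-7 cells transiently expressing human GIP receptor, after 30 min in HBS with 1 mM IBMX at 37 °C. Antagonists preincubated 10 min before GIP giving 50-80% of maximum, then 20 min more; agonist mode used 30 min ligand exposure.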

[4] = target: T3, glucagon receptor (GcgR) (Homo sapiens, UniProt P47871); test: cAMP assay - selectivity, antagonism at glucagon receptor; conditions: Table 3A; COS-7 cells; agonist glucagon at 50-80% of maximal cAMP
T3 construct: expressed in transfected cells; host or cells: COS-7 (transient)
T3 sequence (P47871 26-477, species assumed): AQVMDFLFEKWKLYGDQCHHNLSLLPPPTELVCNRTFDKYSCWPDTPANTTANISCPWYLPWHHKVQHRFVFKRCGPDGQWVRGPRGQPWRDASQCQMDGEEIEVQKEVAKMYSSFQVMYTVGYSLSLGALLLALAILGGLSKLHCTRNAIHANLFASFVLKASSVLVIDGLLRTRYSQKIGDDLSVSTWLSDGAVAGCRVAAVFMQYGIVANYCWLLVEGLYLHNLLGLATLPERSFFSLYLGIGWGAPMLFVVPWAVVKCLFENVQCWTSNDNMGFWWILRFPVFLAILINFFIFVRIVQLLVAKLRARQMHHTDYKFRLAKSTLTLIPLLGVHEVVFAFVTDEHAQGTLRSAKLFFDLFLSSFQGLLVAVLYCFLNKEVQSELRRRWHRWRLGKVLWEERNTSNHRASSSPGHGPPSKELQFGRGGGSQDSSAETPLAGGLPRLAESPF
Description: as §1

[5] = target: T4, GLP2 receptor (GLP2R) (Homo sapiens, UniProt O95838); test: cAMP assay - selectivity, antagonism at GLP2 receptor; conditions: Table 3B; COS-7 cells; agonist GLP2
T4 construct: expressed in transfected cells; host or cells: COS-7 (transient)
T4 sequence (O95838 1-553): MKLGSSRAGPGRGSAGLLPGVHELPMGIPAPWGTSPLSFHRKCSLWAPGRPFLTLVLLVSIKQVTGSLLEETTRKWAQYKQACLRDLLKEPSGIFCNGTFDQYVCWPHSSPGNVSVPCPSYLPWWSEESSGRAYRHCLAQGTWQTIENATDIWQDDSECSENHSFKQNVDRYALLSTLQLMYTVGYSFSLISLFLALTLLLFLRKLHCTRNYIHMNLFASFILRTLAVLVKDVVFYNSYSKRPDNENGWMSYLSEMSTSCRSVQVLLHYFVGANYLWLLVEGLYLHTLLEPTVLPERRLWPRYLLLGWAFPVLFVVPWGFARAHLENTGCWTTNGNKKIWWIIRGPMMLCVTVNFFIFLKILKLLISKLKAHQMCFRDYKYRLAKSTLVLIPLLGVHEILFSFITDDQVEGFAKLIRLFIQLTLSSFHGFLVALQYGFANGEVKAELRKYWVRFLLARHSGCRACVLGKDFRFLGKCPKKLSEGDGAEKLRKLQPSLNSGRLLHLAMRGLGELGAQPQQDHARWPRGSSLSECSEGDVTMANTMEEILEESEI
Description: as §1

[6] = target: T2, human GIP receptor; test: cAMP accumulation, antagonism (DiscoveRx HitHunter cAMP XS assay); parameters: host or cells: COS-7 (transient, calcium phosphate; pCMV-Script vector)
Method in brief: as §2

Compound: CC[C@H](C)[C@H](NC(=O)[C@H](CO)NC(=O)[C@H](Cc1ccc(O)cc1)NC(=O)[C@H](CC(=O)O)NC(=O)[C@H](CO)NC(=O)[C@@H](NC(=O)[C@H](Cc1ccccc1)NC(=O)[C@@H](NC(=O)CNC(=O)[C@@H](N)CO)[C@@H](C)O)[C@@H](C)CC)C(=O)N[C@@H](C)C(=O)N[C@@H](CCSC)C(=O)N[C@@H](CC(=O)O)C(=O)N[C@@H](CCCNC(=N)N)C(=O)N[C@H](C(=O)N[C@@H](CCCCNC(=O)CCCCCCCCCCCCCCCCC(=O)O)C(=O)N[C@@H](CCC(N)=O)C(=O)N[C@@H](CCC(N)=O)C(=O)N[C@@H](CC(=O)O)C(=O)N[C@@H](Cc1ccccc1)C(=O)N[C@H](C(=O)N[C@@H](CC(N)=O)C(=O)N[C@@H](Cc1c[nH]c2ccccc12)C(=O)N[C@@H](CC(C)C)C(=O)N[C@@H](CC(C)C)C(=O)N[C@@H](C)C(=O)N[C@@H](CCC(N)=O)C(=O)N[C@@H](CCCNC(=N)N)C(N)=O)C(C)C)[C@@H](C)CC [AT393] (H-SGTFISDYSIAMDRIK(C18 diacid)QQDFVNWLLAQR-NH2; N-terminus assumed)
- Secretin R, Antagonism [1]: No antagonism
- Emax [2]: 6%
- cAMP agonism, Emax [3]: No Agonism
- Glucagon R, Antagonism, nM [4]: No antagonism
- GLP-2R, Antagonism [5]: No antagonism
- IC50 ([6]; IC50-value (GIPR antagonism), Examples 1 and 2, values of Tables 1B and 2): 1 nM
- cAMP antagonism, % inhib ([6]; Table 1B, DiscoveRx, COS-7 cells, % inhibition of Emax): 100%
- GIPR, Antagonism, % inhib ([6]; Table 3A/3B, DiscoveRx, COS-7 cells): 100.0%
- IC50 ([6]; cAMP antagonism, nM (IC50), Table 1B, DiscoveRx, transiently transfected COS-7 cells): 1 nM
